Laboratory results published in a melting point compilation (Tetko et al.; mined from patent text by program, amines drawn as free bases though some values may be those of a salt).

Structure (SMILES)	melting point [°C]
O=C(NCC1CC1)c1c(NC(=O)c2cc(C(F)(F)F)nn2-c2ncccc2Cl)ccc2cn[nH]c12	240 to 242
CCOc1cc(Cn2[nH]c(N)cc2=O)ccc1Cl	143
CNCC(=O)N1CC(c2ccc(Cl)cc2)Sc2ccccc21 (centres undefined)	139 to 140
CCc1cc(C(C)=O)c(O)cc1OCCCCCC(C)(C)C(N)=O	73 to 74
O=C(Nc1cccc(C(F)(F)F)c1)Nc1ccc(Oc2ncnc3cc[nH]c23)cc1Cl	316 to 319
O=[N+]([O-])c1c(Br)c(Br)cc2c1OC(F)(F)C(F)(F)O2	91 to 92
CCNC(=O)NC(CC)c1ccc(Cl)c2nc3n(c12)CCCN3c1ccc(Cl)cc1Cl (centres undefined)	250 to 252
O=C(O)CCN1CCN(c2ccc([N+](=O)[O-])cc2)CC1	250 to 252
Clc1c2c(nc3cn[nH]c13)CCCC2	190 to 193
COc1ccc(/C=C/c2ccncc2[N+](=O)[O-])cc1OC1CCCC1	114 to 116
Nc1ccc(NC2CCCCC2)cc1	59 to 61
O=C(c1ccc(F)cc1)N1CCC[C@H](c2nc(-c3ccc[nH]3)no2)C1	130 to 135
CSc1nc(O)c2c(n1)CCCS2	248
O=[N+]([O-])N=C1N(Cc2ccc(Cl)nc2)CCN1[N+](=O)[O-]	158
CCC(O)(c1ccc(Cl)cc1)c1ccc(OCCCN2CCCCC2)cc1 (centres undefined)	104 to 105
CC1(CBr)SC2C(NC(=O)Cc3ccccc3)C(=O)N2C1C(=O)OCC(Cl)(Cl)Cl (centres undefined)	90 to 93
CCCCCCn1c2ccccc2c2ccccc21	62.5 to 64.1
CON(C)S(=O)(=O)c1ccccc1[N+](=O)[O-]	105 to 106
O=C1c2cc(O)ccc2OCN1CCO[N+](=O)[O-]	80
O=C(N(CCN(C(=O)C(F)(F)F)c1cccc2[nH]ccc12)Cc1ccccc1)C(F)(F)F	174 to 177
Cc1cccc(NC(N)=S)c1N1CCOCC1	178 to 179
NS(=O)(=O)c1cc(C(=O)O)cc(NCc2ccccc2)c1Oc1ccc(OCc2ccccc2)cc1	249 to 251

Structure (SMILES)	melting point [°C]
CCCc1nc(C=NNC(=O)OCC)c(C)[nH]1	184 to 188
O=C(CC1CSCCC1=O)c1ccc(Br)cc1 (centres undefined)	87.5 to 89.5
C=CCSC1(C(F)(F)F)CN(C2CC2)C(=O)Nc2ccc(Cl)cc21 (centres undefined)	144 to 146
COc1cc(N)c(Cl)cc1C(=O)NC1CCN(CCn2c(=O)[nH]c3ccccc3c2=O)CC1OC (centres undefined)	271
COc1cc(OC)nc(C(CC2CC2)C(=O)NS(C)(=O)=O)n1 (centres undefined)	92 to 94
COc1cccc2c1CNC2	58.5 to 60
CC(C)(C)OC(=O)c1cn(-c2cccnc2)cn1	81 to 82
CC(C)(C)OC(=O)N(C1CCNCC1)C1CCOCC1	104
O=C(N1CCCC(c2cccc3[nH]ccc23)C1)C(F)(F)F (centres undefined)	170
NCC1COc2cc(F)cc(-c3cccc(Cl)c3)c2N1 (centres undefined)	76
CCCCCC1(C=Cc2ccc(C(=O)O)cc2)CC2=C(C1)C(C)(C)CCC2(C)C	121 to 123
CC(C)c1cc(C(C)C)c(NC(=O)CN2CCN(CCSc3nc4ccccc4o3)CC2)c(C(C)C)c1	160 to 163
Clc1ncc(Br)c(NC2CCCC2)n1	95 to 96
CCOc1ccc2c(c1)C(C)=CC(C)(C)N2C1O[C@H](COC(C)=O)[C@@H](OC(C)=O)[C@H](OC(C)=O)[C@H]1OC(C)=O (some centres undefined)	180 to 181
CC1(CN2CCN(C(=O)OCc3ccc(C(=O)c4ccccc4)cc3)CC2)Cn2cc([N+](=O)[O-])nc2O1 (centres undefined)	105 to 107
CC1(C)CC(OC(=O)c2ccccc2)CC(C)(C)N1OP(=O)(c1ccccc1)c1ccccc1	169 to 173
COc1c(C#N)c2cc(Cl)c(Cl)cc2n1C1OC(CO)C(O)C1O (centres undefined)	245 to 246
O=c1[nH]c2c(Cl)ccc(Cl)c2c(=O)n1CCCN1CC=C(c2ccc(Cl)cc2)CC1	207 to 209
N#Cc1c(Oc2ccc(Oc3ccc(N)cc3)cc2)cccc1Oc1ccc(Oc2ccc(N)cc2)cc1	233 to 234
Cc1ccc(C(F)(F)F)c2sc(Sc3ccc4c(c3)CCC3N(C)C(=O)CCC43C)nc12 (single isomer, unassigned; (+))	50 to 54
CCCc1nc2c(N)nc3ccccc3c2n1CCCCC(=O)N1CCOCC1	178 to 179

Continued, values first:

melting point [°C]	Structure (SMILES)
165 to 167	COc1ccc(S(=O)(=O)c2ccc(C)nc2Nc2c(C)cc(C)cc2C)cc1
158 to 161	Nc1cccc2c1Cc1ccccc1C2=O
170 to 172	NS(=O)(=O)c1ccc(-n2nc(C(F)(F)F)cc2-c2ccc(-c3cocn3)cc2)cc1
118 to 120	COc1ccc(C2Sc3c(ccc4ccccc34)N(CCN(C)C)C(=O)C2OC)cc1 (centres undefined)
145 to 147	Cc1cccc(OS(=O)(=O)c2ccc(N3CCCNC3=O)cc2)c1
132 to 134	COc1ccc(C2SCc3c(sc(N)c3C(=O)c3cccc4ccccc34)S2)cc1 (centres undefined)
132 to 133	COc1cccc(CC(=O)O)c1OCCCc1cn(-c2ccc(C#N)nn2)nc1C(C)C
187 to 190	COc1ccc(OC(=O)N2c3cc(Cl)ccc3NC(=O)[C@@H]2C)cc1
207 to 209	O=C(Nc1ccc(Cl)cc1)c1ccc2cccnc2c1O
262 to 264	Cc1cncc(-c2nc3cc(NC(=O)c4c(C(=O)N5CCC5)cnn4C)ccn3n2)c1
> 300	Cc1ccc(-c2c(NS(=O)(=O)c3ccc(C(C)(C)C)cc3)nc(-c3cccs3)nc2OCCO)cc1
109 to 110	O=C1c2ccccc2C(=O)N1CCCn1ccnc1-c1ccccc1
129 to 130	Cc1ccc(C(=O)c2ccc(Cl)cc2)cc1
122	CC1C(=O)N(c2ccccc2)C(=S)N1Cc1ccc(Oc2ccccc2)cc1 (centres undefined)
114 to 115	O=[N+]([O-])c1ccc(C(O)c2ccccn2)cc1 (centres undefined)
276 to 279	CN(C)c1ccc(-c2nnc(S)nc2-c2ccc(N(C)C)cc2)cc1
154	CC(C)c1nc2c(cc1CO)COC(=O)N2c1ccc(F)cc1
88 to 89	Nc1nccn2c(C3CCC3)nc(-c3cccc(OCc4ccccc4)c3F)c12
233	COc1ccc(N2C(=O)C(OC)C2c2ccc(C(=O)O)cc2)cc1 (centres undefined)
65	CCCc1nc(C)nc(Cl)c1Cc1ccc([N+](=O)[O-])cc1
168 to 170	NC(=O)c1cccc(-c2nc3sccn3c2-c2ccnc(N[C@@H]3CCCN(S(=O)(=O)c4ccc(Cl)cc4)C3)n2)c1
218 to 220	CCC1c2ccccc2-c2cc(-c3cccc4c3oc3ccccc34)ccc2N1S(=O)(=O)c1ccc(O)cc1 (centres undefined)
157 to 159	Cc1ccc2c(c1)CC(=O)c1cc(C(C)C(=O)O)ccc1S2 (centres undefined)
124 to 126	CC(C)c1cc(C(C)C)c(CC(=O)O)c(-c2ccc(F)cc2)c1CO
219 to 222	[N-]=[N+]=NCCCn1ccc(-c2ccc(F)cc2)c1-c1ccncc1
148 to 149	CCNc1ccc(C2(C)C(=O)c3c(Cl)cc(Cl)cc3N(Cc3ccccc3)C2=O)cc1 (centres undefined)
